“Also recorded” adds a separate entry of the source. Like-named read-outs stand apart in the source and are kept apart here.
Experiments:
Type in all cases: cell-based
murine Jak2 V617F cells = test: MTS growth and proliferation assay of splicing factor inhibitors with and without Ruxolitinib; conditions: for effect between the functional inhibitor and Ruxolitinib on cell growth inhibition: combination with Ruxolitinib (0.5 μM); for IC50: read-out: IC50, concentration of functional inhibitor needed to inhibit cell growth of 50%
Description: Growth and proliferation was measured by MTS assay. Data shown are representative of 2 independent experiments with 8 technical replicates, mean±SD. The used splicing factor inhibitors are: a) GSK3326595, a Prmt5 inhibitor; b) Indisulam, a Rbm39 inhibitor; c) Herboxidiene; d) Pladienolide B.
The plates were read at 490 nm in Tecan Infinite M200 and the responses were analyzed using Graph Pad Prism.
After 72 hours, the incubation was stopped and growth measured by MTS assay.

[1] = tested on: primary human Jak2-mutated cells; test: Phosphoproteome of primary patient samples after Jak-i exposure; conditions: in vitro and in vivo exposure, 2 hours
Description: In brief, peripheral blood samples from patients with Jak2 mutated myeloproliferative neoplasms were collected, granulocytes isolated, and treated with DMSO or Ruxolitinb 0.5 μM for 2 hours (either in vitro or in vivo). Cells were lysed and processed in 4% SDC buffer (4% SDC, 100 mM Tris pH8.5, 10 mM TCEP and 40 mM CAA), heated for 5 mins at 95° C. and cooled on ice for 15 min. Lysed samples were sonicated, heated again for 5 mins and BCA quantified. Approximately 350 μg of proteins were digested with LysC and Trypsin overnight at room temperature and phosphopeptides were enriched by TiO2 beads as described elsewhere.

Ybx1 pS30 and pS34 = test: Drug-perturbed phosphoproteome profiling of Ybx1 phosphosites; conditions: 10 μM for 1 hour, murine Jak2V617F BaF3
Text: The size and colour of the dots are proportional to the phosphosite intensity, Z-scored (log 2 intensity).
The cells were lysed in Gmdcl buffer and processed as mentioned in the phospho-proteome sample preparation protocol.

[2] = functional inhibitor alone, 72 hours, MTS
[3] = in the presence of Ruxolitinib (0.5 μM), 72 hours, MTS
[4] = Mus musculus, 72 h, in the presence of Ruxolitinib (0.5 μM), 72 hours, MTS

| Molecule | effect between the functional inhibitor and Ruxolitinib on cell growth inhibition (murine Jak2 V617F cells) | IC50 (murine Jak2 V617F cells; [2]) | IC50 (murine Jak2 V617F cells; [3]) | IC50 (murine Jak2 V617F cells; [4]) | further results |
| --- | --- | --- | --- | --- | --- |
| Pladienolide B | synergistic effect | ~15 nM | ~7 nM | – | – |
| N#CC[C@H](C1CCCC1)n1cc(-c2ncnc3[nH]ccc23)cn1 [Ruxolitinib] | – | – | – | – | phosphosites significantly altered [1]: 618 phosphosites |
| CC(=O)N1CCC(Nc2cc(C(=O)NC[C@H](O)CN3CCc4ccccc4C3)ncn2)CC1 [GSK3326595] | synergistic effect | – | – | 4 nM | IC50 (murine Jak2 V617F cells; Mus musculus, 72 h, functional inhibitor alone, 72 hours, MTS): 1000 nM |
| O=C(NOC[C@H](O)CO)c1ccc(F)c(F)c1Nc1ccc(I)cc1F [PD0325901] | – | – | – | – | Ybx1 phosphorylation at pS30 and pS34 (Ybx1 pS30 and pS34): responsive; also recorded: able to inhibit |
| NS(=O)(=O)c1ccc(S(=O)(=O)Nc2cccc3c(Cl)c[nH]c23)cc1 [Indisulam] | synergistic effect | – | – | 500 nM | 50% inhibition of cell growth reached or not (murine Jak2 V617F cells; [2]): not able to reach a 50% inhibition of cell growth |
| CO[C@H]([C@@H](C)[C@H]1O[C@]1(C)C[C@H](C)/C=C/C=C(\C)[C@H]1O[C@@H](CC(=O)O)CC[C@@H]1C)[C@@H](C)O [Herboxidiene] | synergistic effect | ~16 nM | ~8 nM | – | – |

Reference: US20230158032A1, “PHARMACEUTICAL COMBINATION FOR THE TREATMENT OF MYELOPROLIFERATIVE NEOPLASMS” (Universitätsklinikum Jena, priority 2020, published 2023)
